In PubChem BioAssay (NCI):
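How tested: cells in 96-well plates exposed to compound for 48 hours at five concentrations. TGI denotes the concentration required for complete inhibition of growth.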

Key:
Assay in all cases: inhibition of tumour cell growth, NCI panel, 48 h
[1] = tested on: SK-MEL-28 melanoma
[2] = tested on: SR leukemia
[3] = tested on: MDA-N
[4] = tested on: RXF 393 renal
[5] = tested on: K-562 leukemia
[6] = tested on: M14 melanoma
[7] = tested on: NCI/ADR-RES ovarian
[8] = tested on: UACC-62 melanoma
[9] = tested on: U251 CNS
[10] = tested on: ACHN renal
[11] = tested on: LOX IMVI melanoma
[12] = tested on: OVCAR-5 ovarian
[13] = tested on: CAKI-1 renal
[14] = tested on: CCRF-CEM leukemia
[15] = tested on: A549 NSCLC
[16] = tested on: HT29 colon
[17] = tested on: SF-268 CNS

SMILES | TGI [1] [µM] | TGI [2] [µM] | TGI [3] [µM] | TGI [4] [µM] | TGI [5] [µM] | TGI [6] [µM] | TGI [7] [µM] | TGI [8] [µM] | TGI [9] [µM] | TGI [10] [µM] | TGI [11] [µM] | TGI [12] [µM] | TGI [13] [µM] | TGI [14] [µM] | TGI [15] [µM] | TGI [16] [µM] | TGI [17] [µM]
CSC12c3cc(C)n(-c4ccc([N+](=O)[O-])cc4)c3CC(C)(C)CN1C(=O)C2Oc1ccccc1 (configuration not stated) | > 100 | > 100 | > 100 | > 100 | > 100 | > 100 | > 100 | > 100 | > 100 | > 100 | > 100 | > 100 | > 100 | > 100 | > 100 | – | –
CN1C(=O)C2(C)SC1(c1ccccc1)C1C(=O)N(c3ccccc3)C(=O)C12 (configuration not stated) | > 100 | > 100 | > 100 | > 100 | > 100 | > 100 | > 100 | > 100 | > 100 | > 100 | > 100 | > 100 | > 100 | – | > 100 | > 100 | > 100
CCOC(=O)C(C(=O)OCC)=C1SC(=Nc2ccccc2)C(=Nc2ccccc2)N1c1ccccc1 | > 100 | > 100 | > 100 | > 100 | > 100 | – | > 100 | > 100 | > 100 | > 100 | – | > 100 | > 100 | > 100 | > 100 | > 100 | > 100
CO/C=C/C=C(\C#N)C(=O)OC | > 100 | > 100 | > 100 | – | > 100 | – | > 100 | > 100 | > 100 | > 100 | > 100 | > 100 | > 100 | > 100 | > 100 | > 100 | > 100
CSc1ncnc2c1ncn2CCC(=O)O | > 100 | > 100 | > 100 | > 100 | > 100 | > 100 | > 100 | > 100 | – | > 100 | > 100 | > 100 | > 100 | > 100 | > 100 | > 100 | > 100
CSC1=N/C(=C\c2ccc(Cl)cc2)C(=O)N1CN1CCCCC1 | > 100 | > 100 | > 100 | – | > 100 | > 100 | > 100 | > 100 | > 100 | 96.2 | > 100 | > 100 | – | > 100 | > 100 | > 100 | > 100
Cc1cc(S(=O)(=O)NC2=NCc3nc4ccccc4n32)c(S)cc1Cl | > 100 | 49.4 | 58.1 | 33 | > 100 | 63 | 54.6 | 33.3 | > 100 | > 100 | 35 | 65.1 | > 100 | 86.6 | 83.2 | – | > 100
Nc1nc(Cl)cc(NCC2(O)CCC2)n1 | > 100 | > 100 | > 100 | > 100 | > 100 | – | > 100 | > 100 | > 100 | > 100 | > 100 | > 100 | > 100 | – | > 100 | > 100 | > 100
Cc1ccc2c(=O)cc(-c3sccc3C)[nH]c2n1 | – | > 61.1 | 0.359 | > 20.1 | > 100 | > 34.4 | 0.693 | > 72 | > 33.6 | > 54.5 | > 38.1 | > 100 | > 100 | > 24.4 | – | 8.72 | > 56.4
CCCCN1C(=O)C2Cc3c([nH]c4ccccc34)C(c3cccc(O)c3)N2C1=O (configuration not stated) | 34.3 | 45.6 | 36.3 | – | 47.5 | 34.4 | 36.2 | 32.3 | 33.5 | 34.1 | 32.2 | 33 | 33.9 | 36.2 | 35 | 35.7 | 34.7
CC(=O)OCCn1cnc2c(NCC=C(C)C)ncnc21 | > 100 | > 100 | > 100 | > 100 | > 100 | > 100 | > 100 | – | – | > 100 | > 100 | > 100 | > 100 | > 100 | > 100 | > 100 | > 100
Oc1c(Br)cc(/C=C/c2ccnc(/C=C/c3cc(Br)c(O)c(Br)c3)c2)cc1Br | > 100 | 45.9 | 91.3 | – | 60.1 | 54.9 | 92.6 | 73.8 | 30.8 | > 100 | > 100 | 55.3 | > 100 | > 100 | 77 | 40.2 | > 100
CC(=O)O[C@@H]1C[C@]2(C(=O)c3ccccc3)C(=O)C(=O)S[C@]12c1ccccc1 | > 100 | 83.1 | > 100 | 49.9 | 85 | > 100 | > 100 | > 100 | > 100 | > 100 | > 100 | > 100 | > 100 | – | > 100 | > 100 | > 100
C=CCOC(=O)CC[C@H](NC(=O)[C@@H](CCC(F)(F)F)Cc1ccc(O)cc1)C(=O)OCC=C | 45.6 | > 100 | > 100 | > 100 | > 100 | 42.6 | > 100 | > 100 | – | > 100 | > 100 | > 100 | > 100 | – | > 100 | > 100 | > 100
CCN1CCC(O)(c2ccc(Oc3ccc(Cl)cc3)cc2)C(C(=O)c2ccc(Oc3ccc(Cl)cc3)cc2)C1 (configuration not stated) | 58.6 | > 100 | 27 | 46.8 | > 100 | 28.3 | 39.9 | 24.8 | – | 28.2 | 16.5 | 26.4 | 27.3 | 20.9 | 20.3 | 17.7 | 44.3
